Experimental data as given in patent publication US20260295053A1, “COMPOUNDS FOR DEGRADATION AND INHIBITION OF KRAS (G12D) PROTEIN” (Shenzhen Ionova Life Science Co., Ltd., priority 2023, published 2026).

These molecules were tested against T1, KRAS (G12D) (Homo sapiens, UniProt P01116, G12D) (assay: KRAS (G12D) cellular degradation assay in AsPC-1 cells). Details: 24 hours, antibody fluorescence (Odyssey CLX), DC50 half-maximal degradation concentration.
T1 construct: in-cell western with KRAS G12D antibody after 24 h
Format: cell-based
Experimental: ASPC-1 and PK-59 cellular assays ASPC-1 (ATCC cat. CRL-1682) and PK-59 (Nanjing Cobioer, Cat. No. CBP61184) were used in KRAS cellular degradation, pERK inhibition and proliferation assays. The two cell lines were maintained following vendor's instructions. For monitoring KRAS (G12D) cellular degradation and pERK biomarker inhibition, cells were seeded into a 96-well plate with 22,000 and 16,000 cells/well for assays in ASPC-1 and PK-59, respectively. Cells were incubated at 37° C. with 5% CO2 and cell density was monitored until ^~90% confluency was reached. Compounds were serially diluted at a 1:3 ratio and dispensed into each well at final concentrations ranging from […] to 1.5 nM. After incubation for 24 hours, the culture media were removed and the cells were subjected to fixation, permeabilization and blocking (Intercept blocking buffer, Li-cor). For KRAS (G12D) degradation, the cells were treated with primary antibody (KRAS G12D antibody, Cell Signaling Technologies, Cat. No. CST14429) and for β-actin (β-actin mAb, Beyotime, Cat. No. AF-5001), and followed by secondary antibodies, Anti-rabbit IgG (H+L) (DyLight™ 800 4×PEG Conjugate) or IRDye® 680RD Goat anti-Mouse IgG. For pERK inhibition assay, cells were treated with primary antibodies for pERK (Phospho-p44/42 MAPK (Erk1/2) (Thr202/Tyr204) (D13.14.4E) XP® Rabbit mAb, Cell Signaling Technologies, Cat. No. CST-4370) and β-actin (β-actin mAb, Beyotime, Cat. No. AF-5001), and followed by secondary antibodies, Anti-rabbit IgG (H+L) (DyLight™ 800 4×PEG Conjugate) or IRDye® 680RD Goat anti-Mouse IgG. Fluorescence signals were read on Odyssey CLX instrument. For cell proliferation assays, cells were seeded into a 96-well plate at 3,500 and 800 cells/well for assays in ASPC-1 and PK-59, respectively. Cells were incubated at 37° C. with 5% CO2 for overnight. Compounds were serially diluted at a 1:3 ratio and dispensed into each well at final concentrations ranging from […] to 1.5 nM. After incubation for 6 days, cell viability reagent (CellTiter Glo, Promega, Cat. No. G7573) was added to each well and luminescence was recorded on Molecular Devices Spectramax iD3 instrument. IC50, half-maximal inhibitory concentration for pERK inhibition or cell proliferation, and DC50, half-maximal degradation concentration in KRAS (G12D) cellular degradation were determined by fitting the corresponding dose response curves using GraphPad Prism software.
Wherein “A” means the value <10 nM, “B” means 10 nM<the value <100 nM, “C” means 100 nM<the value <1000 nM, and “D” means the value >1000 nM, in which, the value means the value of DC50 or IC50. NT means not tested.

T1 sequence (P01116 1-188 isoform P01116-2 G12D): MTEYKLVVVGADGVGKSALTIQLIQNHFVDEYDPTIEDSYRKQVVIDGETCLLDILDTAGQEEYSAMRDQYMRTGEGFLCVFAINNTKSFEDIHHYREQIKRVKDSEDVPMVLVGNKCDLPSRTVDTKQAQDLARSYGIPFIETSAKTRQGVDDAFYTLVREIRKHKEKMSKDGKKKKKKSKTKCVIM

Row | Compound | DC50 [nM]
1 | CCn1nccc1-c1ccc([C@H](CO)NC(=O)[C@@H]2C[C@@H](O)CN2C(=O)[C@H](C(C)C)n2cc(-c3ccc(COc4c(-c5c(C)c(F)cc6[nH]ncc56)c(C5CC5)cc5c(N6CCNCCC6C)nc(OC[C@H](C)OC)nc45)cc3)nn2)cc1 (stereo in doubt) [Example 153, (2S,4R)-1-((2S)-2-(4-(4-(((6-cyclopropyl-7-(6-fluoro-5-methyl-1H-indazol-4-yl)-2-((S)-2-methoxypropoxy)-4-((S)-7-methyl-1,4-diazepan-1-yl)quinazolin-8-yl)oxy)methyl)phenyl)-1H-1,2,3-triazol-1-yl)-3-methylbutanoyl)-N—((R)-1-(4-(1-ethyl-1H-pyrazol-5-yl)phenyl)-2-hydroxyethyl)-4-hydroxypyrrolidine-2-carboxamide] | 10 to 100
2 | CCn1nccc1-c1ccc([C@H](CO)NC(=O)[C@@H]2C[C@@H](O)CN2C(=O)[C@H](C(C)C)n2cc(-c3ccc(COc4c(-c5c(C)c(F)cc6[nH]ncc56)c(C5CC5)cc5c(N6CCC(C#N)CC6)nc(OC[C@H](C)OC)nc45)cc3)nn2)cc1 [Example 174, (2S,4R)-1-((2S)-2-(4-(4-(((4-(4-cyanopiperidin-1-yl)-6-cyclopropyl-7-(6-fluoro-5-methyl-1H-indazol-4-yl)-2-((S)-2-methoxypropoxy)quinazolin-8-yl)oxy)methyl)phenyl)-1H-1,2,3-triazol-1-yl)-3-methylbutanoyl)-N—((R)-1-(4-(1-ethyl-1H-pyrazol-5-yl)phenyl)-2-hydroxyethyl)-4-hydroxypyrrolidine-2-carboxamide] | 10 to 100
3 | CO[C@@H](C)COc1nc(N2C[C@@H]3C[C@H]2CN3)c2cc(C3CC3)c(-c3c(C)c(F)cc4[nH]ncc34)c(OCc3ccc(-c4cn([C@H](C(=O)N5C[C@H](O)C[C@H]5C(=O)N[C@H](C#Cc5cc(F)cc(F)c5)CO)C(C)C)nn4)cc3)c2n1 [Example 141, (2S,4R)-1-((2S)-2-(4-(4-(((4-((1S,4S)-2,5-diazabicyclo[2.2.1]heptan-2-yl)-6-cyclopropyl-7-(6-fluoro-5-methyl-1H-indazol-4-yl)-2-((S)-2-methoxypropoxy)quinazolin-8-yl)oxy)methyl)phenyl)-1H-1,2,3-triazol-1-yl)-3-methylbutanoyl)-N—((R)-4-(3,5-difluorophenyl)-1-hydroxybut-3-yn-2-yl)-4-hydroxypyrrolidine-2-carboxamide] | 10 to 100
4 | CCn1nccc1-c1ccc([C@H](CO)NC(=O)[C@@H]2C[C@@H](O)CN2C(=O)[C@H](C(C)C)n2cc(-c3ccc(COc4c(-c5c(C)c(F)cc6[nH]ncc56)c(C5CC5)cc5c(N6CC7CNCC7C6)nc(OC[C@H](C)OC)nc45)cc3)nn2)cc1 (stereo partly drawn) [Example 227, (2S,4R)-1-((2S)-2-(4-(4-(((6-cyclopropyl-7-(6-fluoro-5-methyl-1H-indazol-4-yl)-4-(hexahydropyrrolo[3,4-c]pyrrol-2(1H)-yl)-2-((S)-2-methoxypropoxy)quinazolin-8-yl)oxy)methyl)phenyl)-1H-1,2,3-triazol-1-yl)-3-methylbutanoyl)-N—((R)-1-(4-(1-ethyl-1H-pyrazol-5-yl)phenyl)-2-hydroxyethyl)-4-hydroxypyrrolidine-2-carboxamide] | 10 to 100
5 | CCn1nccc1-c1ccc([C@H](CO)NC(=O)[C@@H]2C[C@@H](O)CN2C(=O)[C@H](C(C)C)n2cc(-c3ccc(COc4c(-c5c(C)c(F)cc6[nH]ncc56)c(C5CCC5)cc5c(N6C[C@@H]7C[C@H]6CN7)nc(OC6CCC7(CC6)COC7)nc45)cc3)nn2)cc1 [Example 137, (2S,4R)-1-((2S)-2-(4-(4-(((2-((2-oxaspiro[3.5]nonan-7-yl)oxy)-4-((1S,4S)-2,5-diazabicyclo[2.2.1]heptan-2-yl)-6-cyclobutyl-7-(6-fluoro-5-methyl-1H-indazol-4-yl)quinazolin-8-yl)oxy)methyl)phenyl)-1H-1,2,3-triazol-1-yl)-3-methylbutanoyl)-N—((R)-1-(4-(1-ethyl-1H-pyrazol-5-yl)phenyl)-2-hydroxyethyl)-4-hydroxypyrrolidine-2-carboxamide] | < 10
6 | CCn1ncc2cccc(C#C[C@H](CO)NC(=O)[C@@H]3C[C@@H](O)CN3C(=O)[C@H](C(C)C)n3cc(-c4ccc(COc5c(-c6c(C)c(F)cc7[nH]ncc67)c(C6CC6)cc6c(N7C[C@@H]8C[C@H]7CN8)nc(O[C@H]7C[C@H](OC)C7)nc56)cc4)nn3)c21 [Example 172, (2S,4R)-1-((2S)-2-(4-(4-(((4-((1S,4S)-2,5-diazabicyclo[2.2.1]heptan-2-yl)-6-cyclopropyl-7-(6-fluoro-5-methyl-1H-indazol-4-yl)-2-((1r,3S)-3-methoxycyclobutoxy)quinazolin-8-yl)oxy)methyl)phenyl)-1H-1,2,3-triazol-1-yl)-3-methylbutanoyl)-N—((R)-4-(1-ethyl-1H-indazol-7-yl)-1-hydroxybut-3-yn-2-yl)-4-hydroxypyrrolidine-2-carboxamide] | 10 to 100

Now from value to molecule:

Row | DC50 [nM] | Compound
7 | < 10 | CCn1nccc1-c1ccc([C@H](CO)NC(=O)[C@@H]2C[C@@H](O)CN2C(=O)[C@H](C(C)C)n2cc(-c3ccc(COc4c(-c5c(C)c(F)cc6[nH]ncc56)c(C5CC5)cc5c(N6CCC(O)CC6)nc(OC[C@H](C)OC)nc45)cc3)nn2)cc1 [Example 217, (2S,4R)-1-((2S)-2-(4-(4-(((6-cyclopropyl-7-(6-fluoro-5-methyl-1H-indazol-4-yl)-4-(4-hydroxypiperidin-1-yl)-2-((S)-2-methoxypropoxy)quinazolin-8-yl)oxy)methyl)phenyl)-1H-1,2,3-triazol-1-yl)-3-methylbutanoyl)-N—((R)-1-(4-(1-ethyl-1H-pyrazol-5-yl)phenyl)-2-hydroxyethyl)-4-hydroxypyrrolidine-2-carboxamide]
8 | > 1000 | CO[C@@H](C)COc1nc(N2C[C@H]3C[C@@H]2CN3)c2cc(C3CC3)c(-c3c(C)c(F)cc4n[nH]cc34)c(OCc3ccc(-c4cn([C@H](C(=O)N5C[C@H](O)C[C@H]5C(=O)N[C@@H](CO)c5ccc(-c6c(C)noc6C)cc5)C(C)C)nn4)cc3)c2n1 (single isomer, unassigned) [Example 6B]
9 | 10 to 100 | CCn1nccc1-c1ccc([C@H](CO)NC(=O)[C@@H]2C[C@@H](O)CN2C(=O)[C@H](C(C)C)n2cc(-c3ccc(COc4c(-c5c(C)c(F)cc6[nH]ncc56)c(C5CC5)cc5c(N6C[C@H]7CN[C@H](C7)C6)nc(OC[C@H](C)OC)nc45)cc3)nn2)cc1 [Example 222, (2S,4R)-1-((2S)-2-(4-(4-(((4-((1R,5R)-3,6-diazabicyclo[3.2.1]octan-3-yl)-6-cyclopropyl-7-(6-fluoro-5-methyl-1H-indazol-4-yl)-2-((S)-2-methoxypropoxy)quinazolin-8-yl)oxy)methyl)phenyl)-1H-1,2,3-triazol-1-yl)-3-methylbutanoyl)-N—((R)-1-(4-(1-ethyl-1H-pyrazol-5-yl)phenyl)-2-hydroxyethyl)-4-hydroxypyrrolidine-2-carboxamide]
10 | 10 to 100 | CCn1nccc1-c1ccc([C@H](CO)NC(=O)[C@@H]2C[C@@H](O)CN2C(=O)[C@H](C(C)C)n2cc(-c3ccc(COc4c(-c5c(C)c(F)cc6[nH]ncc56)c(C5CC5)cc5c(N6CCNCC[C@@H]6C)nc(OC[C@H](C)OC)nc45)cc3)nn2)cc1 [Example 183, (2S,4R)-1-((2S)-2-(4-(4-(((6-cyclopropyl-7-(6-fluoro-5-methyl-1H-indazol-4-yl)-2-((S)-2-methoxypropoxy)-4-((S)-7-methyl-1,4-diazepan-1-yl)quinazolin-8-yl)oxy)methyl)phenyl)-1H-1,2,3-triazol-1-yl)-3-methylbutanoyl)-N—((R)-1-(4-(1-ethyl-1H-pyrazol-5-yl)phenyl)-2-hydroxyethyl)-4-hydroxypyrrolidine-2-carboxamide]
11 | 100 to 1000 | CO[C@@H](C)COc1nc(N2CCCNCC2)c2cc(C3CC3)c(-c3c(C)c(F)cc4[nH]ncc34)c(OCc3ccc(-c4cn([C@H](C(=O)N5C[C@H](O)C[C@H]5C(=O)N[C@H](CO)c5ccc(-c6scnc6C)c6c5CC6)C(C)C)nn4)cc3)c2n1 [Example 221, (2S,4R)-1-((2S)-2-(4-(4-(((6-cyclopropyl-4-(1,4-diazepan-1-yl)-7-(6-fluoro-5-methyl-1H-indazol-4-yl)-2-((S)-2-methoxypropoxy)quinazolin-8-yl)oxy)methyl)phenyl)-1H-1,2,3-triazol-1-yl)-3-methylbutanoyl)-4-hydroxy-N—((S)-2-hydroxy-1-(5-(4-methylthiazol-5-yl)bicyclo[4.2.0]octa-1(6),2,4-trien-2-yl)ethyl)pyrrolidine-2-carboxamide]
